The values below come from patent US9018258B2, “Substituted 1-benzylcycloalkylcarboxylic acids and the use thereof” (Bayer Intellectual Property GmbH, priority 2010, dated 2015).

Type in all cases: cell-based
One assay deals with T1, GAL4-PPARγ (Homo sapiens, UniProt P37231).
T1 construct: PPARγ (amino acids 203-506); expressed in transfected cells
T1 sequence (P37231 203-505 limits assumed): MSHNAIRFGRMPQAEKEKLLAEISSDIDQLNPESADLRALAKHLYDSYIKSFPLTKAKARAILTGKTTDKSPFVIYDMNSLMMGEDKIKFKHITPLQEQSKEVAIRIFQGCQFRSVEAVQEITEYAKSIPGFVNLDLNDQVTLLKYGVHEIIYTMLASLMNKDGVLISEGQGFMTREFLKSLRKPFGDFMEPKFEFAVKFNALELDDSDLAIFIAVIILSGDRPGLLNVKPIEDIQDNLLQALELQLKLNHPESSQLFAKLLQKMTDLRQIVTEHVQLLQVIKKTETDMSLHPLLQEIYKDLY
The experiment in a line: Cellular PPAR transactivation assay, GAL4-PPARγ chimera in CHO-K1 cells. Particulars: for Emax: CHO-K1, maximum effect relative to reference compound (Example 73 of EP 1 452 521-A1 = 100%), read-out: PPARγ efficacy; for EC50: CHO-K1 cells, luciferase reporter, 6 h stimulation. The source says:
(§1) A cellular assay is used to test for potentially activating properties of the compounds according to the invention with respect to the three human isoforms of the peroxisome proliferator-activated receptors (PPARα, PPARγ and PPARδ).
(§2) Since mammalian cells contain different endogenous nuclear receptors which may complicate an unambiguous interpretation of the results, an established chimera system is used in which the respective ligand binding domain of the human PPAR isoforms is fused to the DNA binding domain of the yeast transcription factor GAL4. The resulting GAL4-PPARα, γ and δ chimeras are co-transfected and stably expressed in CHO cells having a reporter construct.
(§3) The GAL4-PPAR expression constructs contain the ligand binding domain of PPARα (amino acids 167-468), PPARγ (amino acids 203-506) and PPARδ (amino acids 138-442) which are PCR-amplified and cloned into the vector pcDNA3.1. The respective expression vectors already contain the GAL4 DNA binding domain (amino acids 1-147) of the vector pFC2-dbd (Stratagene). The reporter construct, which contains five copies of the GAL4 binding site upstream of a thymidine kinase promoter, expresses firefly luciferase (Photinus pyralis) following activation and binding of GAL4-PPARα, γ or δ.
(§4) The day before the test, CHO-K1 cells (chinese hamster ovary; ATCC CCL-61) each stably expressing one of the above-described GAL4-PPAR chimeras and the luciferase reporter gene construct are sown in medium [Optimem (GIBCO) with 2% activated carbon-purified foetal calf serum (Hyclone), 1.35 mM sodium pyruvate (GIBCO) and 0.2% sodium bicarbonate (GIBCO)] in a density of 1×10^3 cells in 96-well microtitre plates (Greiner) and kept in a cell incubator (96% atmospheric humidity, 5% v/v CO2, 37° C.). On the test day, the substances to be tested are taken up in the medium mentioned above, but without addition of calf serum, and added in various concentrations to the cells. After a stimulation period of 6 h, the luciferase activity is measured using a video camera. The relative light units measured give, as a function of the substance concentration, a sigmoidal stimulation curve. The EC50 values are calculated using the computer programme GraphPad PRISM (Version 3.02). The maximum effect of a test substance in the respective PPAR assay is determined as efficacy in percent in comparison to an appropriate reference compound whose maximum effect is defined as 100%.
(§5) The reference compound selected here was the compound 2-(3-{[(2-chloro-4-propoxybenzoyl)-amino]methyl}-4-ethoxybenzyl)tetrahydrofuran-2-carboxylic acid [Example 73 of EP 1 452 521-A1] which is described in the prior art as a potent pan-PPAR agonist.

The next assay concerns the target T2, GAL4-PPARα (Homo sapiens, UniProt Q07869).
T2 construct: expressed in transfected cells
T2 sequence (Q07869 167-468): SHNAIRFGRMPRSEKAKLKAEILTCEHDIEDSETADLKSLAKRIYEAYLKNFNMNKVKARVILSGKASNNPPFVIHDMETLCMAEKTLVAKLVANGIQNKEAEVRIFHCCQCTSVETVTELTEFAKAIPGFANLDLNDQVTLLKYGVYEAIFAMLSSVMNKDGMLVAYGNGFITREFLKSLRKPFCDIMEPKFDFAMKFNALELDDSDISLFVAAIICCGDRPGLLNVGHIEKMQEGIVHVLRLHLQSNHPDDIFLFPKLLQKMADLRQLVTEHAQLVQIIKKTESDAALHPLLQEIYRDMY
The experiment in a line: Cellular PPAR transactivation assay, GAL4-PPARα chimera in CHO-K1 cells. The settings on record: for Emax: CHO-K1, maximum effect relative to reference compound (Example 73 of EP 1 452 521-A1 = 100%), read-out: PPARα efficacy; for EC50: CHO-K1 cells, luciferase reporter, 6 h stimulation.
Description: as §1, §2, §3, §4, §5

For another assay, the target named is T3, sGC (Rattus norvegicus, UniProt P20595).
T3 construct: expressed in transfected cells; host or cells: CHO reporter cell
T3 sequence (P19686 whole entry partner): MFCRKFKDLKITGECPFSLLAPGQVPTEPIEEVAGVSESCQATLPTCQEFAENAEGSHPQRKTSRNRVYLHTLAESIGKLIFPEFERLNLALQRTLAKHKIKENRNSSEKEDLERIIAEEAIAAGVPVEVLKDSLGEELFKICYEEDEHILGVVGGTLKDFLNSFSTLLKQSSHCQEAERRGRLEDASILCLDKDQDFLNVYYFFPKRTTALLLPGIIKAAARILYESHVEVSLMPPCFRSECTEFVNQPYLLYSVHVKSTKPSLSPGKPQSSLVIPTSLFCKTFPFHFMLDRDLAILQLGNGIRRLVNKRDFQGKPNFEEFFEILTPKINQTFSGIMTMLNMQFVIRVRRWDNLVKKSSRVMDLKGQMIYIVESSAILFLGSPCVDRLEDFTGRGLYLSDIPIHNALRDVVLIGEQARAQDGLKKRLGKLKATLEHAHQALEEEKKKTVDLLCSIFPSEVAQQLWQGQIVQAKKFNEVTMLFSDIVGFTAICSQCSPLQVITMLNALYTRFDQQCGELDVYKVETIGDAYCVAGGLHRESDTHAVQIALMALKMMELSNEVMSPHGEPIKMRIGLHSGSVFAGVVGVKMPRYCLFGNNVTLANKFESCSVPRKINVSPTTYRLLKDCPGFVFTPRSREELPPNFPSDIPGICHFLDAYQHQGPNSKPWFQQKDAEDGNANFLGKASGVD
T3 sequence (P20595 whole entry): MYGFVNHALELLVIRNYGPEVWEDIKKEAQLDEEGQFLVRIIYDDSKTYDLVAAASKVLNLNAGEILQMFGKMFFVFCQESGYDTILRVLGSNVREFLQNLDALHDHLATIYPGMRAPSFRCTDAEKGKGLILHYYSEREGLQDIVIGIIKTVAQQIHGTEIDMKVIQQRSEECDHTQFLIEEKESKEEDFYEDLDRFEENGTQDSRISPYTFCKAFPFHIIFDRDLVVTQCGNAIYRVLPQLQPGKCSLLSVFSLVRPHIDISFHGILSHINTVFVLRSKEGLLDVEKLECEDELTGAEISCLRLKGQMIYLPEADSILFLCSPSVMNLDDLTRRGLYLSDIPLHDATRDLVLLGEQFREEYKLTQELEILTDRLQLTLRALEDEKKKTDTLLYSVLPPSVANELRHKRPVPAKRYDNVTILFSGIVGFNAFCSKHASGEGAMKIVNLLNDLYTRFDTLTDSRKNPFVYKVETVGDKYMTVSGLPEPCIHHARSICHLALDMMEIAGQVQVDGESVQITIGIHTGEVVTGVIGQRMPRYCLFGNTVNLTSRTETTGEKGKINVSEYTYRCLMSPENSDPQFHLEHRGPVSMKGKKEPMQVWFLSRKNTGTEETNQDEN
In words: Action at a recombinant guanylate cyclase reporter cell line (CHO reporter cell). Particulars: CHO reporter cell in vitro. As for the experimental part:
The cellular action of the compounds according to the invention is determined at a recombinant guanylate cyclase reporter cell line, as described in F. Wunder et al., Anal. Biochem. 339, 104-112 (2005).

For the next assay, the target named is T4, GAL4-PPARδ (Homo sapiens, UniProt Q03181).
T4 construct: PPARδ (amino acids 138-442); expressed in transfected cells
T4 sequence (Q03181 138-441 limits assumed): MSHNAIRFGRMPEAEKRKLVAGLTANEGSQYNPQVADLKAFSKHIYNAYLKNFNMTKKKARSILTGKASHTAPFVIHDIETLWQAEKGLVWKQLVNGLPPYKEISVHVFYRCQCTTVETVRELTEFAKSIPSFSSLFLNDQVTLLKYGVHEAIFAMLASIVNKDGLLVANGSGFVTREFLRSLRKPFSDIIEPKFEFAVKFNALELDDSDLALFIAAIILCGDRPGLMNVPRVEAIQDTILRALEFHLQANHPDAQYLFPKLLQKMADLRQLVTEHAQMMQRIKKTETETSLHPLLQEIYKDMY
In words: Cellular PPAR transactivation assay, GAL4-PPARδ chimera in CHO-K1 cells. The settings on record: for Emax: CHO-K1, maximum effect relative to reference compound (Example 73 of EP 1 452 521-A1 = 100%), read-out: PPARδ efficacy; for EC50: CHO-K1 cells, luciferase reporter, 6 h stimulation.
Description: as §1, §2, §3, §4, §5

In the case of `C[C@H]([C@H](C(=O)Nc1cc(CC2(C(=O)O)CC2(F)F)ccc1Cl)c1ccc(Cl)cc1)C(F)(F)F` (single isomer, unassigned; (+)) [Example 71], the results for the Emax at GAL4-PPARγ, on GAL4-PPARα and on GAL4-PPARδ were 20%, 0% and 0%, respectively. The EC50 on GAL4-PPARγ was 0.46 µM; at GAL4-PPARα, over 10 µM; on GAL4-PPARδ it was over 10 µM. At sGC, the “MEC (minimum effective concentration), sGC-activating activity in the CHO reporter cell” value (“MEC (minimum effective concentration)” below) worked out at 3 nM.

As to `COc1ccc(CC2(C(=O)O)CC2)cc1CNC(=O)c1ccc(Cl)cc1Cl` [Example 11 of EP 1 452 521-A1, 1-(3-{[(2,4-dichlorobenzoyl)amino]methyl}-4-methoxybenzyl)cyclopropanecarboxylic acid, reference compound], the values for the Emax on GAL4-PPARγ, on GAL4-PPARα and on GAL4-PPARδ were 0%, 0% and 10%, respectively. The EC50 on GAL4-PPARγ, at GAL4-PPARα and at GAL4-PPARδ was over 1 µM throughout. In addition, on GAL4-PPARα (statement covers the PPARα, PPARγ and PPARδ test), the “Effect in the cellular PPAR transactivation test (in words)” value is on record as “virtually ineffective”.

Regarding `Cc1ccc(CC2(C(=O)O)CC2)cc1NC(=O)[C@H](c1ccc(Cl)cc1)[C@@H](C)C(F)(F)F` [Example 33, 1-(3-{[(2S,3R)-2-(4-chlorophenyl)-4,4,4-trifluoro-3-methylbutanoyl]amino}-4-methylbenzyl)-cyclopropanecarboxylic acid], the Emax was 10% at GAL4-PPARγ, 0% at GAL4-PPARα and 0% at GAL4-PPARδ. Besides, the EC50 was 4 µM at GAL4-PPARγ, over 10 µM on GAL4-PPARα and over 10 µM at GAL4-PPARδ. Besides, the “MEC (minimum effective concentration)” value on sGC is 3 nM.

With `C[C@H]([C@H](C(=O)Nc1cc(CC2(C(=O)O)CC2)ccc1F)c1ccc(C(C)(F)F)cc1)C(F)(F)F` [Example 38, 1-[3-({(2S,3R)-2-[4-(1,1-difluoroethyl)phenyl]-4,4,4-trifluoro-3-methylbutanoyl}amino)-4-fluorobenzyl]cyclopropanecarboxylic acid], the Emax at GAL4-PPARγ, on GAL4-PPARα and on GAL4-PPARδ was 0% in each case. Further, the EC50 on GAL4-PPARγ, on GAL4-PPARα and at GAL4-PPARδ was over 10 µM in each case. Further, at sGC, the “MEC (minimum effective concentration)” value is on record as 0.3 nM.

For the compound `C[C@H]([C@H](C(=O)Nc1cc(CC2(C(=O)O)CC2)ccc1F)c1ccc(C2CC2)cc1)C(F)(F)F` [Example 40, 1-(3-{[(2S,3R)-2-(4-cyclopropylphenyl)-4,4,4-trifluoro-3-methylbutanoyl]amino}-4-fluorobenzyl)cyclopropanecarboxylic acid], the Emax on GAL4-PPARγ is 10%; on GAL4-PPARα it was 0%; on GAL4-PPARδ, 0%. In addition, the EC50 at GAL4-PPARγ is 0.12 µM; on GAL4-PPARα, over 10 µM; at GAL4-PPARδ it was over 10 µM. Besides, the “MEC (minimum effective concentration)” value at sGC is recorded as 0.3 nM.

Consider `COc1cc([C@@H](C(=O)Nc2cc(CC3(C(=O)O)CC3)ccc2F)[C@@H](C)C(F)(F)F)ccc1Cl` [Example 42, 1-(3-{[(2S,3R)-2-(4-chloro-3-methoxyphenyl)-4,4,4-trifluoro-3-methylbutanoyl]amino}-4-fluorobenzyl)cyclopropanecarboxylic acid], for which the results for the Emax on GAL4-PPARγ, at GAL4-PPARα and at GAL4-PPARδ were 10%, 0% and 0%, respectively. Also, the values for the EC50 on GAL4-PPARγ, at GAL4-PPARα and at GAL4-PPARδ were 2 µM, over 10 µM and over 10 µM, respectively. The “MEC (minimum effective concentration)” value on sGC is 3 nM.

In the case of `C[C@H]([C@H](C(=O)Nc1cc(CC2(C(=O)O)CC2)ccc1Cl)c1ccc(C(C)(C)C(F)(F)F)cc1)C(F)(F)F` [Example 44, 1-[4-chloro-3-({(2S,3R)-4,4,4-trifluoro-3-methyl-2-[4-(1,1,1-trifluoro-2-methylpropan-2-yl)phenyl]-butanoyl}amino)benzyl]cyclopropanecarboxylic acid], the Emax at GAL4-PPARγ, at GAL4-PPARα and at GAL4-PPARδ was 0% each time. Also, the EC50 at GAL4-PPARγ, on GAL4-PPARα and at GAL4-PPARδ was over 10 µM in each case. The “MEC (minimum effective concentration)” value at sGC came out at 0.3 nM.

Regarding `CCCOc1ccc(C(=O)NCc2cc(CC3(C(=O)O)CCCO3)ccc2OCC)c(Cl)c1` (stereo not shown) [Example 73 of EP 1 452 521-A1, 2-(3-{[(2-chloro-4-propoxybenzoyl)amino]-methyl}-4-ethoxybenzyl)tetrahydrofuran-2-carboxylic acid, reference compound], the Emax on GAL4-PPARγ, on GAL4-PPARα and on GAL4-PPARδ was 100% in each case. The figures for the EC50 on GAL4-PPARγ, on GAL4-PPARα and at GAL4-PPARδ were 0.0089 µM, 0.0053 µM and 0.0084 µM, respectively.
